These molecules were tested against P2X7 (Homo sapiens (Human), UniProt Q99572) (assay: P2X7 antagonism in human peripheral blood mononuclear cells (PBMCs), IL-1β release). Conditions: P2X7; Table 3 (additional runs); 10 μM compound; read-out: PBMC 10 μM (% control).
Type: cell-based
Description: P2X7 Antagonism in Human Peripheral Blood Mononuclear Cells (PBMCs) and Human Whole Blood.
Human blood was collected using a blood donor program. PBMCs were isolated from blood using a Ficoll density gradient technique. Briefly, blood was laid on Ficoll solution and centrifuged at RT for 20 minutes at 2000 rpm. The buffy layer (between red blood cells and plasma) was carefully collected by aspiration, washed with PBS and centrifuged again at 1500 rpm for 15 minutes. The resulting cell pellet was washed and plated on 96 well-plates for experiments. For the Human Whole Blood experiments, 150 μl of human blood was platted on 96 well-plates. Lipopolysaccharide (LPS) (30 ng/ml) was added to each well and incubated for 1 hour. Test compounds were then added and incubated for 30 minutes. The P2X7 agonist, 2′(3′)-O-(4-benzoylbenzoyl) adenosine 5′-triphosphate (Bz-ATP) was then added at a final concentration of 0.5 mM (PBMC) or 1 mM (blood). Cells were incubated for an additional 1.5 hours. At that point, supernatant was collected and stored for IL-1β assay using manufacturer's protocol for enzyme-linked immunosorbent assay (ELISA). Data was expressed as percent control, where control is defined as the difference in IL-1β release in LPS+Bz-ATP samples and LPS only samples. Data was plotted as response (% control) versus concentration to generate IC50 values. […] Data are analyzed and graphed on Graphpad Prism 5. For analysis, each concentration point is averaged from triplicate values and the averaged values are plotted on Graphpad Prism.

Sequence of P2X7 (Q99572 whole entry): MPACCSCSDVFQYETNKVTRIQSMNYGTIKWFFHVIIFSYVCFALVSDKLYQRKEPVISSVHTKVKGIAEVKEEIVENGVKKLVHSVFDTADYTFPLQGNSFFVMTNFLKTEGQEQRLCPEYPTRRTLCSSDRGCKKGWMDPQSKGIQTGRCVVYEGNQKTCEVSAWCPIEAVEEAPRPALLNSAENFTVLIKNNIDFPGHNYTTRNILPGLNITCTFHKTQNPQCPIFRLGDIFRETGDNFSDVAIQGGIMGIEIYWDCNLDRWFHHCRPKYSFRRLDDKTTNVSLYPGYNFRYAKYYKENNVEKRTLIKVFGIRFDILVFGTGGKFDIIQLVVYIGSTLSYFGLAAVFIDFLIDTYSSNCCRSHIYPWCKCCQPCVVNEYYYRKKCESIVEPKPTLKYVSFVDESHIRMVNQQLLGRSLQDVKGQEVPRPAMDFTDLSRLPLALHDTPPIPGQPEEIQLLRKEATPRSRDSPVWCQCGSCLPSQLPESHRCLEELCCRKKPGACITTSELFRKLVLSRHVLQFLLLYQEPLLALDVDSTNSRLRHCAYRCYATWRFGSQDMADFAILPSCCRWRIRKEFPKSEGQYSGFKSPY

remaining activity at 10 µM [%] | SMILES
24.6 | C[C@H]1Cn2c(nnc2C2CCN(C(=O)OC(C)(C)C)C2)C(=O)N1Cc1cccc(C(F)(F)F)c1Cl (stereo partly drawn) [Example 58, (6S)-tert-Butyl3-{7-[2-chloro-3-(trifluoromethyl)benzyl]-6-methyl-8-oxo-5,6,7,8-tetrahydro[1,2,4]triazolo[4,3-a]pyrazin-3-yl}pyrrolidine-1-carboxylate]
17.1 | C[C@H]1Cn2c(nnc2C2CCCNC2)C(=O)N1Cc1cccc(C(F)(F)F)c1Cl (stereo partly drawn) [Example 60, (6S)-7-[2-Chloro-3-(trifluoromethyl)benzyl]-6-methyl-3-piperidin-3-yl-6,7-dihydro[1,2,4]triazolo[4,3-a]pyrazin-8(5H)-one]
1.9 | CC[C@H]1Cn2c(nnc2-c2ncccn2)C(=O)N1Cc1cccc(C(F)(F)F)c1Cl [Example 72, (6S)-7-[2-Chloro-3-(trifluoromethyl)benzyl]-6-ethyl-3-pyrimidin-2-yl-6,7-dihydro[1,2,4]triazolo[4,3-a]pyrazin-8(5H)-one]
6.2 | CC[C@H]1Cn2c(nnc2-c2cccnc2)C(=O)N1Cc1cccc(C(F)(F)F)c1Cl [Example 73, (6S)-7-[2-Chloro-3-(trifluoromethyl)benzyl]-6-ethyl-3-pyridin-3-yl-6,7-dihydro[1,2,4]triazolo[4,3-a]pyrazin-8(5H)-one]
0.3 | CC[C@H]1Cn2c(nnc2-c2cc[nH]n2)C(=O)N1Cc1cccc(C(F)(F)F)c1Cl [Example 74, (6S)-7-[2-Chloro-3-(trifluoromethyl)benzyl]-6-ethyl-3-(1H-pyrazol-3-yl)-6,7-dihydro[1,2,4]triazolo[4,3-a]pyrazin-8(5H)-one]
22.6 | CC[C@H]1Cn2c(nnc2-c2ncc(F)cn2)C(=O)N1Cc1cccc(C(F)(F)F)c1Cl [Example 75, (6S)-7-[2-Chloro-3-(trifluoromethyl)benzyl]-6-ethyl-3-(5-fluoropyrimidin-2-yl)-6,7-dihydro[1,2,4]triazolo[4,3-a]pyrazin-8(5H)-one]
16.9 | CC[C@H]1Cn2c(nnc2-c2ccc(F)cn2)C(=O)N1Cc1cccc(C(F)(F)F)c1Cl [Example 76, (6S)-7-[2-Chloro-3-(trifluoromethyl)benzyl]-6-ethyl-3-(5-fluoropyridin-2-yl)-6,7-dihydro[1,2,4]triazolo[4,3-a]pyrazin-8(5H)-one]
105 | C[C@H]1Cn2c(nnc2-c2cnccn2)C(=O)N1 [Example 77, (6S)-6-Methyl-3-pyrazin-2-yl-6,7-dihydro[1,2,4]triazolo[4,3-a]pyrazin-8(5H)-one]
8.3 | C[C@H]1Cn2c(nnc2-c2cnccn2)C(=O)N1Cc1ccc(F)cc1Cl [Example 78, (6S)-7-(2-Chloro-4-fluorobenzyl)-6-methyl-3-pyrazin-2-yl-6,7-dihydro[1,2,4]triazolo[4,3-a]pyrazin-8(5H)-one]
15.6 | C[C@H]1Cn2c(nnc2-c2cnccn2)C(=O)N1Cc1ccccc1 [Example 79, (6S)-7-Benzyl-6-methyl-3-pyrazin-2-yl-6,7-dihydro[1,2,4]triazolo[4,3-a]pyrazin-8(5H)-one]
8.4 | C[C@H]1Cn2c(nnc2-c2cnccn2)C(=O)N1Cc1ccccc1Cl [Example 80, (6S)-7-(2-Chlorobenzyl)-6-methyl-3-pyrazin-2-yl-6,7-dihydro[1,2,4]triazolo[4,3-a]pyrazin-8(5H)-one]
170 | C[C@H]1Cn2c(nnc2-c2cnccn2)C(=O)N1Cc1ccc(S(C)(=O)=O)cc1Cl [Example 81, (6S)-7-[2-Chloro-4-(methylsulfonyl)benzyl]-6-methyl-3-pyrazin-2-yl-6,7-dihydro[1,2,4]triazolo[4,3-a]pyrazin-8(5H)-one]
22.2 | C[C@H]1Cn2c(nnc2-c2cnccn2)C(=O)N1Cc1ccc(Cl)cc1S(C)(=O)=O [Example 82, (6S)-7-[4-Chloro-2-(methylsulfonyl)benzyl]-6-methyl-3-pyrazin-2-yl-6,7-dihydro[1,2,4]triazolo[4,3-a]pyrazin-8(5H)-one]
15.6 | C[C@H]1Cn2c(nnc2-c2cnccn2)C(=O)N1Cc1ccccc1OC(F)(F)F [Example 83, (6S)-6-Methyl-3-pyrazin-2-yl-7-[2-(trifluoromethoxy)benzyl]-6,7-dihydro[1,2,4]triazolo[4,3-a]pyrazin-8(5H)-one]
25.9 | C[C@H]1Cn2c(nnc2-c2cnccn2)C(=O)N1Cc1cc2c(cc1Cl)OCO2 [Example 84, (6S)-7-[(6-Chloro-1,3-benzodioxol-5-yl)methyl]-6-methyl-3-pyrazin-2-yl-6,7-dihydro[1,2,4]triazolo[4,3-a]pyrazin-8(5H)-one]
16.6 | Cc1c(CN2C(=O)c3nnc(-c4cnccn4)n3C[C@@H]2C)cccc1C(F)(F)F [Example 85, (6S)-6-Methyl-7-[2-methyl-3-(trifluoromethyl)benzyl]-3-pyrazin-2-yl-6,7-dihydro[1,2,4]triazolo[4,3-a]pyrazin-8(5H)-one]

The remaining lines, values behind:

SMILES | remaining activity at 10 µM [%]
C[C@H]1Cn2c(nnc2-c2ccncc2)C(=O)N1Cc1cccc(C(F)(F)F)c1Cl [Example 47, (6S)-7-[2-Chloro-3-(trifluoromethyl)benzyl]-6-methyl-3-pyridin-4-yl-6,7-dihydro[1,2,4]triazolo[4,3-a]pyrazin-8(5H)-one] | -1.3
Cc1ncccc1-c1nnc2n1C[C@H](C)N(Cc1cccc(C(F)(F)F)c1Cl)C2=O [Example 48, (6S)-7-[2-Chloro-3-(trifluoromethyl)benzyl]-6-methyl-3-(2-methylpyridin-3-yl)-6,7-dihydro[1,2,4]triazolo[4,3-a]pyrazin-8(5H)-one] | 0
C[C@H]1Cn2c(nnc2C2CCC2)C(=O)N1Cc1cccc(C(F)(F)F)c1Cl [Example 49, (6S)-7-[2-Chloro-3-(trifluoromethyl)benzyl]-3-cyclobutyl-6-methyl-6,7-dihydro[1,2,4]triazolo[4,3-a]pyrazin-8(5H)-one] | -3.1
C[C@H]1Cn2c(nnc2C2CC2)C(=O)N1Cc1cccc(C(F)(F)F)c1Cl [Example 50, (6S)-7-[2-Chloro-3-(trifluoromethyl)benzyl]-3-cyclopropyl-6-methyl-6,7-dihydro[1,2,4]triazolo[4,3-a]pyrazin-8(5H)-one] | 8.7
C[C@H]1Cn2c(nnc2C2CCCCC2)C(=O)N1Cc1cccc(C(F)(F)F)c1Cl [Example 51, (6S)-7-[2-Chloro-3-(trifluoromethyl)benzyl]-3-cyclohexyl-6-methyl-6,7-dihydro[1,2,4]triazolo[4,3-a]pyrazin-8(5H)-one] | 22.4
C[C@H]1Cn2c(nnc2-c2cncc(Cl)c2)C(=O)N1Cc1cccc(C(F)(F)F)c1Cl [Example 52, (6S)-3-(5-Chloropyridin-3-yl)-7-[2-chloro-3-(trifluoromethyl)benzyl]-6-methyl-6,7-dihydro[1,2,4]triazolo[4,3-a]pyrazin-8(5H)-one] | 13.8
C[C@H]1Cn2c(nnc2C2CCOCC2)C(=O)N1Cc1cccc(C(F)(F)F)c1Cl [Example 53, (6S)-7-[2-Chloro-3-(trifluoromethyl)benzyl]-6-methyl-3-(tetrahydro-2H-pyran-4-yl)-6,7-dihydro[1,2,4]triazolo[4,3-a]pyrazin-8(5H)-one] | 33.2
C[C@H]1Cn2c(nnc2-c2nccc(C(F)(F)F)n2)C(=O)N1Cc1cccc(C(F)(F)F)c1Cl [Example 54, (6S)-7-[2-chloro-3-(trifluoromethyl)benzyl]-6-methyl-3-[4-(trifluoromethyl)pyrimidin-2-yl]-6,7-dihydro[1,2,4]triazolo[4,3-a]pyrazin-8(5H)-one] | 4.2
C[C@H]1Cn2c(nnc2-c2cccc(C(F)(F)F)n2)C(=O)N1Cc1cccc(C(F)(F)F)c1Cl [Example 55, (6S)-7-[2-Chloro-3-(trifluoromethyl)benzyl]-6-methyl-3-[6-(trifluoromethyl)pyridin-2-yl]-6,7-dihydro[1,2,4]triazolo[4,3-a]pyrazin-8(5H)-one] | 8.5
C[C@H]1Cn2c(nnc2-c2ccc(Cl)cn2)C(=O)N1Cc1cccc(C(F)(F)F)c1Cl [Example 56, (6S)-3-(5-Chloropyridin-2-yl)-7-[2-chloro-3-(trifluoromethyl)benzyl]-6-methyl-6,7-dihydro[1,2,4]triazolo[4,3-a]pyrazin-8(5H)-one] | 11.2
Cc1cncc(-c2nnc3n2C[C@H](C)N(Cc2cccc(C(F)(F)F)c2Cl)C3=O)c1 [Example 57, (6S)-7-[2-Chloro-3-(trifluoromethyl)benzyl]-6-methyl-3-(5-methylpyridin-3-yl)-6,7-dihydro[1,2,4]triazolo[4,3-a]pyrazin-8(5H)-one] | 0.1
CC[C@H]1Cn2c(nnc2-c2cnccn2)C(=O)N1Cc1cccc(C(F)(F)F)c1Cl [Example 71, (6S)-7-[2-Chloro-3-(trifluoromethyl)benzyl]-6-ethyl-3-pyrazin-2-yl-6,7-dihydro[1,2,4]triazolo[4,3-a]pyrazin-8(5H)-one] | 1.2

Same assay, conditions: Table 2; 10 μM compound; IL-1β release, LPS + 0.5 mM Bz-ATP

SMILES | PBMC 10 μM (% control)
CC[C@H]1Cn2c(nnc2-c2cnccn2)C(=O)N1Cc1cccc(C(F)(F)F)c1Cl [Example 71, (6S)-7-[2-Chloro-3-(trifluoromethyl)benzyl]-6-ethyl-3-pyrazin-2-yl-6,7-dihydro[1,2,4]triazolo[4,3-a]pyrazin-8(5H)-one] | 1.2
